Assay results taken from patent US20200268762A1, “7-SUBSTITUTED SULFONIMIDOYLPURINONE COMPOUNDS AND DERIVATIVES FOR THE TREATMENT AND PROPHYLAXIS OF LIVER CANCER” (Hoffmann-La Roche Inc., priority 2019, published 2020).
≈ marks a conversion by molar mass, not a printed value. Where two headings read alike, the source gives them in different places.

How the values were obtained:
[1] = LYSA solubility study; type: physicochemical; settings: for LYSA of Active Forms: 0.05 M phosphate buffer pH 6.5; for solubility thermodynamic: 0.05 M phosphate buffer, pH 6.5, aqueous buffer, thermodynamic from solid
Method: LYSA study is used to determine the aqueous solubility of tested compounds. Samples were prepared in duplicate from 10 mM DMSO stock solution. After evaporation of DMSO with a centrifugal vacuum evaporator, the compounds were dissolved in 0.05 M phosphate buffer (pH 6.5), stirred for one hour and shaken for two hours. After one night, the solutions were filtered using a microtiter filter plate. Then the filtrate and its 1/10 dilution were analyzed by HPLC-UV. […] The results were in μg/mL. In case the percentage of sample measured in solution after evaporation divided by the calculated maximum of sample amount was bigger than 80%, the solubility was reported as bigger than this value.

[2] = tested on: cell lines originating from hepatocellular carcinoma and cholangiocarcinoma; test: Direct treatment of tumor cell lines, cell counts by nuclei imaging; type: cell-based; settings: 27 μM down to 270 pM, 72, 120 and 148 hours, relative to DMSO control
Method: Cell lines derived from hepatocellular carcinoma and cholangiocarcinoma (EGI1 and OZ) were maintained and tested in the following media: Huh7 and EGI1 were cultured in DMEM 4.5 g/L glucose (Gibco, Cat #31966-021), 10% FCS (GIBCO, Cat #10500-064 Lot 07G3690K), 2 mM L-glutamine (Thermo Fischer, Cat #25030081), 1 mM sodium pyruvate (GIBCO Cat #11360-039). Hep3B and HepG2 were cultivated in Eagles MEM+Earle's BSS (PAN, Cat # P04-08510), 10% FCS, 2 mM L-glutamine, 0.1 mM NEAA (PAN Cat # P08-32100) and 1 mM sodium pyruvate. JHH1, JHH5, JHH6 and OZ were cultivated in Williams'E (PAN Cat # P04-29050), 10% FCS and 2 mM L-glutamine. JHH2 was cultivated using Williams'E, 10% FCS and 2 mM L-glutamine. HLE was cultivated in DMEM 4.5 g/L glucose, 10% FCS and 2 mM L-glutamine. HLF was cultivated in DMEM 4.5 g/L glucose, 5% FCS, 0.1 mM NEAA and 2 mM L-glutamine. JHH4 was cultivated in Eagles MEM+Earle's BSS, 10% FCS and 2 mM L-glutamine. SkHep1 was cultivated in Eagles MEM+Earle's BSS, 10% FCS, 2 mM L-glutamine, 0.1 mM NEAA and 1 mM sodium pyruvate. SNU449 was cultivated using RPMI 1640 (PAN Cat # P04-18047) 10% FCS and 2 mM L-glutamine. […]
Tumor cell counts were determined using Perkin Elmer Operetta Imaging System and Harmony Software by counting nuclei stained for 20 minutes in full media using Hoechst33342 dye (2 μg/ml, Sigma Cat # B2261). […]

[3] = target: T1, human TLR7 (Homo sapiens, UniProt Q9NYK1); test: HEK293-Blue-hTLR-7 cells assay (SEAP reporter); type: cell-based; settings: for EC50: SEAP reporter, 20 hrs
T1 sequence (Q9NYK1 27-1049): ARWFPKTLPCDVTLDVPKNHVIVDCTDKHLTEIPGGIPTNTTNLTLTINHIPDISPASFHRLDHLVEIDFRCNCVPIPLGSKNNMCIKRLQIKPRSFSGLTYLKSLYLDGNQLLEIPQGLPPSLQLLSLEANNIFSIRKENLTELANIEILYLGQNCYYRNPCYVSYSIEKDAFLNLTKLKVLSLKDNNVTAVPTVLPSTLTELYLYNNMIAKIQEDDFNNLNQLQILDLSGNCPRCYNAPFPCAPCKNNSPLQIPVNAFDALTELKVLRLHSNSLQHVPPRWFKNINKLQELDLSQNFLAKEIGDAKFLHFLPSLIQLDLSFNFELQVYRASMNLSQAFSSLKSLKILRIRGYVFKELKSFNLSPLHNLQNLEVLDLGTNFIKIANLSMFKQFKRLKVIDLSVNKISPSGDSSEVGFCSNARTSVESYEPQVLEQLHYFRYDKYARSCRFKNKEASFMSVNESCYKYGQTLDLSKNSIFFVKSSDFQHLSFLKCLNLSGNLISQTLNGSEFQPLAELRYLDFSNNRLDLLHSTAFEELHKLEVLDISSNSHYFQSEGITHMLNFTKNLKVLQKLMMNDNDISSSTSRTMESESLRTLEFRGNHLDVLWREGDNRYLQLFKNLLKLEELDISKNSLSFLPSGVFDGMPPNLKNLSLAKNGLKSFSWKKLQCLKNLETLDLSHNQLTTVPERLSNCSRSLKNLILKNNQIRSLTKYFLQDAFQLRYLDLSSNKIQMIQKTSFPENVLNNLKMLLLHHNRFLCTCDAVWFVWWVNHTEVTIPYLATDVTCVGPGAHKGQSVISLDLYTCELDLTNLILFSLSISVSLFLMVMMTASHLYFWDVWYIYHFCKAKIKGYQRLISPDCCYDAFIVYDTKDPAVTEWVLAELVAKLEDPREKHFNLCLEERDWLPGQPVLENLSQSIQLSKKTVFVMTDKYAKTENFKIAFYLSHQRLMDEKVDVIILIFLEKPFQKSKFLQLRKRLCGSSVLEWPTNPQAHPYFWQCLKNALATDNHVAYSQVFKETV
Description: HEK293-Blue-hTLR-7 cells assay: A stable HEK293-Blue-hTLR-7 cell line was purchased from InvivoGen (Cat. #: hkb-htlr7, San Diego, Calif., USA). These cells were designed for studying the stimulation of human TLR7 by monitoring the activation of NF-κB. A SEAP (secreted embryonic alkaline phosphatase) reporter gene was placed under the control of the IFN-β minimal promoter fused to five NF-κB and AP-1-binding sites. The SEAP was induced by activating NF-κB and AP-1 via stimulating HEK-Blue hTLR7 cells with TLR7 ligands. Therefore the reporter expression was regulated by the NF-κB promoter upon stimulation of human TLR7 for 20 hrs. The cell culture supernatant SEAP reporter activity was determined using QUANTI-Blue™ kit (Cat. #: rep-qbl, Invivogen, San Diego, Ca, USA) at a wavelength of 640 nm, a detection medium that turns purple or blue in the presence of alkaline phosphatase. […] Then 20 μL of the supernatant from each well was incubated with 180 μL Quanti-blue substrate solution at 37° C. for 2 hrs and the absorbance was read at 620-655 nm using a spectrophotometer. The signalling pathway that TLR7 activation leads to downstream NF-κB activation has been widely accepted, and therefore similar reporter assay was also widely used for evaluating TLR7 agonist (Tsuneyasu Kaisho and Takashi Tanaka, Trends in Immunology, Volume 29, Issue 7, July 2008, […]; Hiroaki Hemmi et al, Nature Immunology 3, 196-200 (2002)). The Compounds and Examples of the present invention were tested in HEK293-hTLR-7 assay for their TLR7 agonism activity as described herein and results are listed in Table 1. […] The calculated ratio of EC50(prodrug)/EC50(active form) were within the range from 32 to about 7600.

[4] = tested on: iAST mouse model of hepatocellular carcinoma; test: iAST mouse model of hepatocellular carcinoma, tumor burden; settings: iAST mice, Sorafenib 90 mg/kg daily
Method: Per group n=10 were analyzed by One-way ANOVA and Tukey correction shown as individual dots with means±SEM using GraphPad Prism software version 6.

[5] = tested on: immune cell infiltrate in iAST tumor; test: Leukocyte infiltrate of iAST tumors by flow cytometry; type: in vivo, mouse; settings: day 12 after treatment start
Method: Tumors from iAST mice were treated as described in FIG. 1. […] For flow cytometry, tumors were excised and single cell suspensions obtained by mechanical processing and enzymatic digestion (DNAse 0.01%, Collagenase IV 1 mg/ml). Staining procedures started with Fc receptor blocking using 2.4G2 antibody clone (1:200 dilution, BD Bioscience), and the following antibodies (clones) were used to analyzed leukocyte infiltrate: CD45-FITC (30-F11, BioLegend) and CD11b-BUV737 (M1/70, BD Bioscience). Samples were acquired using a LSR Fortessa machine (BD Bioscience) and analyzed by FlowJo version 10 (Treestar).

[6] = corresponding active form, read-out: HEK293-hTLR-7 EC50 (Active form)

SMILES: CCCS(=N)(=O)c1nc(N)c2[nH]c(=O)n(Cc3ccccc3)c2n1 (single isomer, unassigned) [Compound 1e-A, 6-amino-9-benzyl-2-(propylsulfonimidoyl)-7H-purin-8-one]
- LYSA of Active Forms [1]: 56 µg/mL

SMILES: CCCS(=N)(=O)c1nc(N)c2[nH]c(=O)n(Cc3ccccc3)c2n1 (single isomer, unassigned) [Compound 1e-B, 6-amino-9-benzyl-2-(propylsulfonimidoyl)-7H-purin-8-one]
- solubility thermodynamic ([1]; read-out: LYSA of Active Forms): 50 µg/mL (≈ 144 µM)

SMILES: CCCS(=N)(=O)c1nc(N)c2[nH]c(=O)n(Cc3ccc(C)cc3)c2n1 (single isomer, unassigned) [Compound 36g-A, 6-Amino-2-(propylsulfonimidoyl)-9-(p-tolylmethyl)-7H-purin-8-one]
- solubility thermodynamic ([1]; read-out: LYSA of Active Forms): 6 µg/mL (≈ 16.6 µM)

SMILES: CCCS(=N)(=O)c1nc(N)c2[nH]c(=O)n(Cc3ccc(C)cc3)c2n1 (single isomer, unassigned) [Compound 36g-B, 6-Amino-2-(propylsulfonimidoyl)-9-(p-tolylmethyl)-7H-purin-8-one]
- LYSA of Active Forms [1]: 11 µg/mL

SMILES: CC[S@@](=N)(=O)c1nc(N)c2[nH]c(=O)n(Cc3ccc(Cl)cc3)c2n1 (single isomer, unassigned) [Compound 41c-B, 6-amino-9-[(4-chlorophenyl)methyl]-2-(ethylsulfonimidoyl)-7H-purin-8-one]
- tumor cell proliferation upon direct treatment [2]: None of the cell lines tested showed a significant increase in proliferation
- tumor cell proliferation upon direct treatment ([2]; listed as compound 41c-B): does not induce enhanced tumor cell proliferation

SMILES: CC[S@@](=N)(=O)c1nc(N)c2[nH]c(=O)n(Cc3ccc(Br)cc3)c2n1 (single isomer, unassigned) [Compound 47e-A, 6-Amino-9-[(4-bromophenyl)methyl]-2-(ethylsulfonimidoyl)-7H-purin-8-one]
- EC50 [3, 6]: 21 nM

SMILES: CC[S@@](=N)(=O)c1nc(N)c2[nH]c(=O)n(Cc3ccc(Br)cc3)c2n1 (single isomer, unassigned) [Compound 47e-B, 6-Amino-9-[(4-bromophenyl)methyl]-2-(ethylsulfonimidoyl)-7H-purin-8-one]
- EC50 [3, 6]: 25 nM

SMILES: CCCN(C)C(=O)n1c(=O)n(Cc2ccc(Br)cc2)c2nc([S@](=N)(=O)CC)nc(N)c21 (single isomer, unassigned) [Example 47-A]
- solubility thermodynamic ([1]; read-out: LYSA of Prodrugs): 154 µg/mL (≈ 302 µM)
- EC50 ([3]; prodrug, read-out: HEK293-hTLR-7 EC50 (Prodrug)): 10900 nM

SMILES: CCC[S@](=N)(=O)c1nc(N)c2c(n1)n(Cc1ccc(C)cc1)c(=O)n2C(=O)N(C)CCOC [Example 38-A, 6-Amino-N-(2-methoxyethyl)-N-methyl-8-oxo-2-[S(S)-propylsulfonimidoyl]-9-(p-tolylmethyl)purine-7-carboxamide]
- Ratio (EC50(prodrug)/EC50(active form)) [3]: 1378.9

SMILES: CNC(=O)c1cc(Oc2ccc(NC(=O)Nc3ccc(Cl)c(C(F)(F)F)c3)cc2)ccn1 [Sorafenib, 4-{4-[3-(4-Chlor-3-trifluormethylphenyl)ureido]phenoxy}pyridin-2-carbonsäuremethylamid]
- efficacy in monotherapy (total liver and tumor weights) [4]: highly effective
- Examination of the liver for superficial tumor nodules (tumor nodule free) ([4]; day 12 after treatment start, 41-A 10 mg/kg once a week oral): 0/10 tumor nodule free
- overall lymphoid and myeloid composition of the tumors [5]: changes were clearly driven by Sorafenib
